Series [1] deals with Staphylococcus aureus ATCC 29213. Description: MIC by microdilution, compound alone or in combination with an aminoglycoside. In kind it is cell-based. On the procedure: (§1) Method. The minimal inhibitory concentrations (MICs), (i.e. lowest concentration of an antimicrobial that will inhibit the visible growth of a microorganism after incubation), of test compounds were determined against the normal or SCV strains of bacterial species from the Firmicutes phylum. Briefly, MICs were determined using the microdilution method in 96-well plates (Clinical and Laboratory Standards Institute (CLSI), 2011). Bacteria were inoculated at ˜10^5-10^6 CFU/mL and incubated at 35° C. for 20 h (normal strains) or 48 h (SCVs) in brain heart infusion (BHI) broth in order to allow SCVs to reach maximal growth as previously described (Mitchell et al., 2012). Then OD595 nm was read on a microplate reader. […] In this example the range of compound concentrations tested was 0.03 to 64 μg/ml using doubling increments. Strain Staphylococcus aureus NewbouldΔhemB (hemB) was also used in the experiments and is a laboratory-derived stable SCV created by the insertion of the macrolide resistance gene ermA in the hemB gene of this strain to create the SCV phenotype (defective electron transport chain and respiratory deficiency) through inactivation of hemin biosynthesis (Brouillette et al., 2004).
The various antibacterial activities of the test compounds against Staphylococcus aureus ATCC 29213, alone or in combination with gentamicin, and alone against the SCV strain hemB are reported in Table 1.

For the next series, the system named is MRSA USA300. Description: MIC by microdilution, alone or in combination, MRSA USA300. In kind it is cell-based, Staphylococcus aureus. The note with it: agent used alone. The procedure: as §1
(§2) In the present Example the range of compound concentrations tested, using doubling increments, was 0.03 to 64 μg/ml for Compound 14 and up to 1024 μg/ml for gentamicin (GEN), kanamycin (KAN) and cefalexin (CEF) when these compounds were used alone. Compound 14 (Cpd 14) was used at a fixed concentration of 4 μg/ml when added to other antibiotics. The combination of CEF and KAN was used in a 3:2 ratio and doubling increments were used to test the antibacterial activity against MRSA in the absence or presence of Compound 14.
Background: Dilution methods test growth across graded concentrations, often in twofold steps.

The subject of a further series is MRSA COL. Put plainly: MIC by microdilution, alone or in combination, MRSA COL. In kind it is cell-based, Staphylococcus aureus. Conditions: agent used alone. On the procedure: as §1, §2
Series [2] has as its system methicillin-resistant Staphylococcus aureus (MRSA) strains. Put plainly: MIC against MRSA strains. In kind it is cell-based. On the procedure: as §1, §2
Another series has as its system S. aureus hemB (SaR2). Description: MIC against tomatidine-resistant SCV mutant SaR2. In kind it is cell-based, Staphylococcus aureus. On the procedure:
At each passage, using a microdilution method in 96-well microplates, S. aureus hemB was inoculated at ˜10^5-10^6 CFU/ml and incubated at 35° C. for 48 h. The range of tomatidine concentrations tested was 0.03 to 64 μg/ml using doubling increments. The concentration of gentamicin was fixed at 4 μg/mL when it was used in combination with tomatidine. At each passage, the minimal inhibitory concentrations (MICs) (i.e. lowest concentration of an antimicrobial that inhibits the visible growth of bacteria), of tomatidine was determined. The bacteria used as inoculum for the next passage were from the well preceeding the well showing the MIC (i.e. the well containing half the MIC). At each passage, the population of bacteria serving as the inoculum for the next passage was spread on BHI agar plates and three isolated colonies were collected and frozen until used for whole-genome sequencing.

For series [3], the system named is S. aureus SCV strain CF07-S in polarized Calu-3 epithelial cells. Put plainly: Intracellular replication of SCV in Calu-3 cell infection assay. In kind it is cell-based, Staphylococcus aureus. The note with it: 2 and 4 μg/ml; 48 h post-internalization; vs DMSO-treated cells; hydrochloride. On the procedure: Human airway epithelial cells, the Calu-3 cell line ATCC HTB 55, were used in this cell culture assay. Cells were cultured in Eagle's Minimum Essential Medium (EMEM) supplemented with 0.1 mM MEM nonessential amino acids, 1 mM of sodium pyruvate, 100 U/ml penicillin, 0.1 mg/ml streptomycin, 2.5 μg/ml of Fungizone and 10% fetal bovine serum (FBS) at 37° C. in 5% CO2. For routine culture, 4 μg/ml of puromycin was added to culture media. All cell culture reagents were purchased from Wisent (St-Bruno, QC, Canada). Cell infection assays were performed as previously described (Mitchell et al., 2011). Cells were seeded at 2.5×10^5 cells/inserts on 12-well Transwell™ plates and cultured for 9 to 10 days in an air:liquid system. The complete medium in the basal compartment was replaced by the invasion medium (1% FBS and no antibiotics) 18 h before assays. Inocula were prepared by suspending bacteria grown 20 h on BHIA plates in ice-cold PBS. Bacteria (the S. aureus SCV strain CF07-S; Mitchell et al., 2011) were then washed three times in ice-cold PBS and suspended in the invasion medium supplemented with 0.5% BSA at a density of approximately 4×10^8 CFU/ml. […] Fresh invasion medium supplemented with lysostaphin was also added 1 h before cell lysis to ensure that only intracellular bacteria were counted. […]

Entries after “also recorded” stand apart in the source; their conditions may differ.

Take “3-(N-aminoethyl)-aminotomatidine hydrochloride [Compound 14]”: the “solubility in DMSO” value worked out at 26 mg/mL. In addition, in series [1] (MIC gentamicin alone / MIC gentamicin with compound at 4 μg/mL), the “potentiaton fold with gentamicin” value was 4-8 x. Moreover, the “potentiation / synergy with aminoglycoside (gentamicin) in words” value in series [1] (S. aureus ATCC 29213) was “retain the ability to potentiate”. In addition, the “activity vs ATCC29213 in words” value in series [1] (compound tested alone) is on record as “Active”. The “MIC vs ATCC29213” value in series [1] (compound tested alone, hydrochloride) was 8 to 16 µg/mL. Moreover, the “potentiation activity with gentamicin in words” value in series [1] (compound used at 4 μg/mL) is recorded as “Moderate-high”. In series [1] (compound used at 4 μg/mL, MIC of gentamicin alone 0.5 μg/mL), the “Combination MIC vs ATCC29213 (MIC of gentamicin in combination with the compound)” value is on record as 0.06-0.12. Further, the MIC (usually the lowest concentration that inhibits growth of the organism) in the series on MRSA USA300 came out at 16 µg/mL. Besides, the MIC in the series with MRSA COL turned out to be 16 µg/mL. For the same substance, the “potentiation fold on addition of Compound 14 to cefalexin:kanamycin combination” value in series [2] (MRSA strains resistant to both cefalexin and kanamycin) was 32 fold. In addition, the “MIC on MRSA strains” value in series [2] (used alone, tested MRSA strains (kanamycin: two of the strains)) came to 16 µg/mL. Also, the “Fold increase in resistance (MIC for mutant / MIC for NewbouldΔhemB)” value in the series with S. aureus hemB (SaR2) (mutant SaR2) is given as 8 fold. In addition, the minimal inhibitory concentration (MIC) in the series on S. aureus hemB (SaR2) (tomatidine-resistant mutant SaR2) was found to be 4 µg/mL. In addition, the “intracellular SCVs in Calu-3 cells (CFU)” value in series [3] is recorded as “can significantly decrease the infection; also recorded: significantly less SCVs”.

These data come from US10716797B2, “Steroid alkaloids and compositions and kits thereof” (priority 2013, dated 2020).
